The record followed here is patent US8263353B2, “Method for detecting autoprocessed, secreted PCSK9” (Merck Sharp & Dohme Corp., priority 2007, dated 2012).

Common to all, as to format: cell-based
For test [1], the target named is T1, PCSK9 processing (Homo sapiens, UniProt Q8NBP7, D186A/G670E/V474I).
T1 construct: expressed in transfected cells
Briefly: Western blot of HEK293 cells stably expressing PCSK9 mutant D186A. The conditions noted are these: HEK293 stable cell line; FIG. 11A. On the procedure: (§1) Cells carrying vector alone (pcDNA3.1) or vector plus PCSK9 (PCSK9-152 FLAG-V5/His and PCSK9-152 FLAG-V5/His-S386A) were plated in 1×DMEM containing 1 mg/ml G418 supplemented with 10% FBS. After 24 hr, the media was switched to DMEM media lacking serum. After an additional 6 hr, the media was removed and the cells were lysed in RIPA buffer (TEKNOVA) plus Complete protease inhibitor cocktail (Roche). Protein concentration was assayed with BCA Protein Assay Kit (Pierce). […] of proteins from lysate or 15 μl media were loaded on 10-20% Tris-Glycine gels (Invitrogen). Following transfer, membranes were successively incubated with 1:5000 anti-VS (Invitrogen), 1:3000 anti-FLAG ml (Sigma-Aldrich Co.) or 1:3000 anti_FLAG m2 (Sigma-Aldrich Co.) primary antibody and 1:3000 anti-mouse IgG (H+L) alkaline phosphatase conjugate (Promega). Bands were subsequently detected using a 1-step NBT/BCIP Kit (Pierce) according to manufacturer's instructions.
420:55-67. […] Media from the D186A stable cell line was purified using column chromatography (as described) to obtain both purified nonprocessed and processed D186A (FIG. 11B). Similar to the WT PCSK9 protein processed D186A retains the pro domain after several column purifications (FIG. 11B).
(In general: In western blotting, separated proteins are transferred to a membrane and probed.)

Test [2] deals with T2, PCSK9 processing (Homo sapiens, UniProt Q8NBP7, G670E/V474I).
T2 construct: expressed in transfected cells
Briefly: Co-transfection of PCSK9 pro domain with wild type V5/His-tagged PCSK9, western blot of cell lysate and media. The conditions noted are these: co-transfected pro domain. On the procedure:
FIGS. 10A and 10B illustrate inhibition of PSCK9 processing through co-transfection of PCSK9 pro domain. The figure illustrates the inhibition of PCSK9 processing is similar whether the domain is untagged, or tagged at the N-terminus with either an HA or His tag. […] The lanes are in order wild-type; wild-type; pro domain; HA pro domain; His pro domain.
as §1, with “instructions. […]” for “instructions.”

Test [3] has as its system diI-LDL uptake in HEK293 cells. Briefly: DiI-LDL uptake assay (PCSK9-dependent LDL-uptake assay). On the procedure: Blood for LDL isolation was obtained from healthy human volunteers. Blood (200 ml) was collected in EDTA tubes and spun at 15,000 rpm for 15 min at 4° C. Plasma density was adjusted to 1.02 g/ml with sodium bromide and the tubes were centrifuged at 45,000 rpm in Ti70 ultracentrifuge rotor for 20 hr. The VLDL layer was removed and the bottom layer was recalibrated to a density of 1.063 g/ml with sodium bromide. The tubes were again centrifuged at 45,000 rpm in Ti70 rotor for 72 hr. The LDL layer was removed and dialysed against PBS pH 7.4 and 0.5 M EDTA. The final protein concentration was determined using a BCA Protein Assay Kit. LDL was labeled with a fluorescent DiI particle (Molecular Probes). A stock solution containing 3 mg of DiI dissolved in 1 ml of dimethyl sulfoxide (DMSO) was prepared. This stock solution of D11 was added to LDL at a final concentration of 135 μg of DiI to 1 ml of LDL. The labeling reaction was incubated at 37° C. for 24 hr in the dark followed by LDL isolation as mentioned above.
HEK293 cells stably expressing the vector pcDNA3.1 alone were plated in a 96-well poly D-lysine coated plate (Corning) at a density of 30,000 cells/well in 1×DMEM, containing 1 mg/ml G418 and 10% FBS (HEK293). A similar plating protocol was followed for HepG2 and CHO cells except that G418 was not added to the media. After 24 hr, the media was switched to DMEM media lacking serum. After 18 hr, the media was removed and the cells were washed with OptiMEM (Invitrogen). Purified PCSK9 protein was added to the cells in 100 μl of mixture B (DMEM containing 10% lipoprotein deficient serum (LPDS) (Intracel) and 10 μg/ml dI-LDL). To measure non-specific binding, 100 μl of mixture B that also contained 400 μg/ml unlabeled LDL was added to control wells. The plates were incubated at 37° C. for 6.5 hours and the cells were washed quickly in Tris-buffered saline (TBS, Biorad) containing 2 mg/ml Bovine Serum Albumin (BSA) (Sigma). The wash step was repeated, but this time the wash buffer was incubated for 2 min with the cells. Last, the cells were quickly washed twice with TBS (without BSA) and lysed in 100 μl RIPA buffer. The lysate was transferred to a 96-well black plate (Thermo Labsystem) and fluorescence was measured using a SpectraMAX tunable spectrofluorometer (Molecular Devices) at an excitation wavelength of 520 nm and an emission wavelength of […] Total cellular protein was measured in each well using a BCA Protein Assay and the fluorescence units were normalized to total protein. The amount of specific LDL uptake (specific counts) is the difference between the total counts measured (in the absence of unlabeled LDL) and the counts measured in the presence of an excess of unlabeled LDL (non-specific background fluorescence). […]

T2 sequence (Q8NBP7 31-692 V474I/G670E): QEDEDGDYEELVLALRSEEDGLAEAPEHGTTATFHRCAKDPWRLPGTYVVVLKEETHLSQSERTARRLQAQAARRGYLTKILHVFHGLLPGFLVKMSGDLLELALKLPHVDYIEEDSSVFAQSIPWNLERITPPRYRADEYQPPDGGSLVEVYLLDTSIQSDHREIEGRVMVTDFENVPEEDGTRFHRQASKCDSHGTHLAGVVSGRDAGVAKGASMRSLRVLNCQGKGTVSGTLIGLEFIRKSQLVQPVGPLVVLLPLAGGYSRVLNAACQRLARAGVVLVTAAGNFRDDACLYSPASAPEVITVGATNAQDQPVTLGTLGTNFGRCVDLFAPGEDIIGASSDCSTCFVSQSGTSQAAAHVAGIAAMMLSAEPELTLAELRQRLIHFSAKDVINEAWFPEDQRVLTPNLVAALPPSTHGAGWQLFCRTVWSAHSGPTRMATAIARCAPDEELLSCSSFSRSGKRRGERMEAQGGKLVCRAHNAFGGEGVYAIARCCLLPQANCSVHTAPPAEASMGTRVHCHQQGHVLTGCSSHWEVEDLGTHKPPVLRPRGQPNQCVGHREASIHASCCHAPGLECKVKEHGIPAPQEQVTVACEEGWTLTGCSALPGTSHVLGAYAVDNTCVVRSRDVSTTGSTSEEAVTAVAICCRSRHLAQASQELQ
T1 sequence (Q8NBP7 31-692 D186A/V474I/G670E): as the sequence (Q8NBP7 31-692 V474I/G670E) above, with D156A counted along it

Turning to “D186A PCSK9 mutant: Human PCSK9 single catalytic-triad mutant D186A stably expressed in HEK293 cells”, the extent of processing with PCSK9 processing [1] is 10-20%.
Consider “PCSK9 pro domain: Human PCSK9 pro domain (SEQ ID NO: 20, residues 31-152) expressed from co-transfected nucleic acid”, for which the “amount of processed PCSK9 in cell lysate compared to cells expressing wild type alone” value in the test with PCSK9 processing [2] (cell lysate, FIG. 10A) is given as “reduced”. The “processed PCSK9 detected in the media” value in the test with PCSK9 processing [2] (media, FIG. 10B) is given as “less processed PCSK9 was detected”.
In the case of “nonprocessed D186A: Purified secreted, nonprocessed form of human PCSK9 mutant D186A (SEQ ID NO: 34)”, the “fold less active than processed PCSK9 in PCSK9-dependent LDL uptake” value in test [3] (FIG. 11C) is approximately 20 fold. Moreover, the “activity in PCSK9-dependent LDL-uptake assay” value in test [3] (HEK293 cells, purified protein, FIG. 11C) is “only weakly active”.
Consider “processed D186A: Purified secreted, autoprocessed form of human PCSK9 catalytic-triad mutant D186A, retaining the pro domain”, for which, in test [3] (HEK293 cells), the “fold weaker in potency than WT PCSK9” value was “approximately 4 fold”. In addition, the EC50 in test [3] (HEK293 cells, purified protein, FIG. 11C, read-out: EC50 (amount of PCSK9 protein required for 50% inhibition of diI-LDL uptake)) was 189 nM.

Usually EC50 stands for the midpoint of the concentration-response curve.
